# Assay results taken from patent publication US8324211B2, “Inhibitors of bruton's tyrosine kinase” (Roche Palo Alto LLC, priority 2008, dated 2012).
# Target: T1, Btk enzyme (His-tagged, full-length) (Homo sapiens, UniProt Q06187)
# T1 construct: 5-10 nM Btk enzyme (His-tagged, full-length); His
# Experiment: Bruton's Tyrosine Kinase (Btk) Inhibition Assay (33P filtration capture)
# Type: biochemical
# Settings: 100 μM ATP, 30 μM peptide substrate, 30 min at 30° C.
# Source text: Bruton's Tyrosine Kinase (Btk) Inhibition Assay
# The assay is a capture of radioactive ^33P phosphorylated product through filtration. The interactions of Btk, biotinylated SH2 peptide substrate (Src homology), and ATP lead to phosphorylation of the peptide substrate. Biotinylated product is bound streptavidin sepharose beads. All bound, radiolabeled products are detected by scintillation counter.
# Plates assayed are 96-well polypropylene (Greiner) and 96-well 1.2 μm hydrophilic PVDF filter plates (Millipore). Concentrations reported here are final assay concentrations: 10-100 μM compounds in DMSO (Burdick and Jackson), 5-10 nM Btk enzyme (His-tagged, full-length), 30 μM peptide substrate (Biotin-Aca-AAAEEIYGEI-NH2), 100 μM ATP (Sigma), 8 mM imidazole (Sigma, pH 7.2), 8 mM glycerol-2-phosphate (Sigma), 200 μM EGTA (Roche Diagnostics), 1 mM MnCl2 (Sigma), 20 mM MgCl2 (Sigma), 0.1 mg/ml BSA (Sigma), 2 mM DTT (Sigma), 1 μCi^33P ATP (Amersham), 20% streptavidin sepharose beads (Amersham), 50 mM EDTA (Gibco), 2 M NaCl (Gibco), 2 M NaCl w/1% phosphoric acid (Gibco), microscint-20 (Perkin Elmer).
# IC50 determinations are calculated from 10 data points per compound utilizing data produced from a standard 96-well plate assay template. One control compound and seven unknown inhibitors were tested on each plate and each plate was run twice. Typically, compounds were diluted in half-log starting at 100 μM and ending at 3 nM.The control compound was staurosporine. Background was counted in the absence of peptide substrate. Total activity was determined in the presence of peptide substrate. The following protocol was used to determine Btk inhibition. • 1) Sample preparation: The test compounds were diluted at half-log increments in assay buffer (imidazole, glycerol-2-phosphate, EGTA, MnCl2, MgCl2, BSA). • 2) Bead preparation […]
# T1 sequence (Q06187 whole entry): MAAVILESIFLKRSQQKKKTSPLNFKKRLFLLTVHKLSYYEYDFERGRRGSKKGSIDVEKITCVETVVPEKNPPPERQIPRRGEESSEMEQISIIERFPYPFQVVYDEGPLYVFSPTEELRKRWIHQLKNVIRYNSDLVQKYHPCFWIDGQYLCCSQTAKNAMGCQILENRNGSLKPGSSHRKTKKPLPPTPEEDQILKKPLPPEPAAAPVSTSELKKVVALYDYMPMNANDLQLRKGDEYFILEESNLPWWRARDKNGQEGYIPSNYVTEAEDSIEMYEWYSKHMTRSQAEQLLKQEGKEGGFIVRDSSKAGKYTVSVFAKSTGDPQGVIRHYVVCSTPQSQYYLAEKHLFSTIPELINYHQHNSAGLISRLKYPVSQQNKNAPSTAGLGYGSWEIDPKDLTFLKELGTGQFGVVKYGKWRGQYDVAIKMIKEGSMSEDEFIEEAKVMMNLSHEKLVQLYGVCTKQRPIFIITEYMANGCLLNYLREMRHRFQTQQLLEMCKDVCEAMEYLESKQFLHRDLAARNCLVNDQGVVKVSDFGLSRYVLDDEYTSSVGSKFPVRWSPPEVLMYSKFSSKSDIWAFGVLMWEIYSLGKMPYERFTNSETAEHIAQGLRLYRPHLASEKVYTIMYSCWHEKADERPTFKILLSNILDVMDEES
row,IC50 [µM],Compound
1,< 0.01,"CN(C)c1ccc2c(c1)CCN(c1cccc(-c3cc(Nc4ccc(C(=O)N5CCOCC5)cn4)c4nccn4c3)c1CO)C2=O [II-4, 6-Dimethylamino-2-(2-hydroxymethyl-3-{8-[5-(morpholine-4-carbonyl)-pyridin-2-ylamino]-imidazo[1,2-a]pyridin-6-yl}-phenyl)-3,4-dihydro-2H-isoquinolin-1-one]"
2,< 0.01,"O=C(c1ccc(Nc2cc(-c3cccc(N4CCc5cc(C6CC6)ccc5C4=O)c3CO)nn3ccnc23)nc1)N1CCOCC1 [II-2, 6-Cyclopropyl-2-(2-hydroxymethyl-3-{8-[5-(morpholine-4-carbonyl)-pyridin-2-ylamino]-imidazo[1,2-b]pyridazin-6-yl}-phenyl)-3,4-dihydro-2H-isoquinolin-1-one]"
3,< 0.01,"CN(C)c1ccc2c(c1)CCN(c1cccc(-c3cc(Nc4ccc(C(=O)N5CCOCC5)cn4)c4nccn4n3)c1CO)C2=O [II-1, 6-Dimethylamino-2-(2-hydroxymethyl-3-{8-[5-(morpholine-4-carbonyl)-pyridin-2-ylamino]-imidazo[1,2-b]pyridazin-6-yl}-phenyl)-3,4-dihydro-2H-isoquinolin-1-one]"
